In patent publication US20130197023A1, “NEUROPROTECTION BY PHARMACOLOGICAL CHAPERONING OF NICOTINIC ACETYLCHOLINE RECEPTORS” (priority 2012, published 2013):
Where “and” joins values, the source holds several entries; their conditions need not be identical. Equal entries are not always repeated. Entries after “also recorded” stand apart in the source; their conditions may differ. Where two headings read alike, the source gives them in different places.

Key:
α4-GFPβ4-R348C nAChRs = molecular target: T1, α4-GFPβ4-R348C nAChRs (Mus musculus, UniProt O70174+Q8R493, R348C); test: Whole-cell patch clamp of ACh currents in cortical neurons transfected with α4-GFPβ4-R348C; format: cell-based
T1 construct: expressed in transfected cells; host or cells: mouse cortical neurons (primary culture)
Protocol: (§1) To correlate the fluorescence based insertion measurements with electrophysiological measurements, we performed whole-cell patch clamp recording from neurons in the preparation used for our fluorescence experiments, transfected either with α4-GFPβ4-WT or with α4-GFPβ4-R348C nAChRs. The successfully transfected neurons were identified with green fluorescence (FIG. 6. A, D of Richards et al.). Puffs of 300 μM ACh (0.1 s, 20 psi), typically give maximal currents in previous experiments and therefore provide a measure of nAChR number. ACh evoked inward currents in 100% (8/8) and 92% (11/12) of neurons transfected with α4-GFPβ4-WT and α4-GFPβ4-R348C nAChRs, respectively (FIG. 6B, 6E of Richards et al.). The α4-GFPβ4-R348C nAChR currents (120±33 pA, n=12) were only 40% of α4-GFPβ4-WT nAChR currents (310±72 pA, n=8) (p=0.02) (FIG. 6C of Richards et al.). Because variations among the size of neurons could complicate the data, we calculated current density (dividing ACh currents divided by membrane capacitance). The current density of […] (16.3±2.1 pA/pF, n=8) (p=0.001) (FIG. 6F of Richards et al.). Thus in cortical neurons, the R348C mutation produces a fairly consistent ˜2-fold decrease in α4β4-insertion rate and ˜2.5 fold decrease in ACh-induced currents.

α4-GFPβ4-WT nAChRs = molecular target: T2, α4-GFPβ4-WT nAChRs (Mus musculus, UniProt O70174+Q8R493); test: Whole-cell patch clamp of ACh currents in cortical neurons transfected with α4-GFPβ4-WT; format: cell-based
T2 construct: expressed in transfected cells; host or cells: mouse cortical neurons (primary culture)
Protocol: as §1

α4-eGFPβ2-wt nAChRs [1] = molecular target: T3, α4-eGFPβ2-wt nAChRs (Mus musculus, UniProt O70174+Q9ERK7); format: cell-based
T3 construct: expressed in transfected cells; host or cells: mouse Neuro-2a cells
Protocol: Neuro-2a cells were plated on 12 mm glass coverslips within 35 mm plastic bottom cell culture dishes. The following day, cells were transfected with 500 ng α4-eGFP and 500 ng β2-wt nAChR subunits. 24 to 48 hr later, glass coverslips were transferred to dishes on the microscope stage. Green fluorescence was visualized with an upright microscope (BX50WI, Olympus) and UV illumination with appropriate excitation filters. Agonist-induced currents were tested at a holding potential of −65 mV using a focal, relatively rapid drug application system designed to minimize desensitization (Xiao et al., 2009). We applied drugs from the lowest to highest concentration at 3 min intervals to minimize desensitization. Whole-cell patch-clamp recordings were with a MultiClamp 700B amplifier, a 1322 analog-to-digital converter, and pCLAMP 9.2 software (all from Axon Instruments, Molecular Devices). Data were sampled at 10 kHz and filtered at 2 kHz.
The intrapipette solution contained (in mM): 135 potassium gluconate, 5 KCl, 5 EGTA, 0.5 CaCl2, 10 HEPES, 2 Mg-ATP, and 0.1 GTP; the pH was adjusted to 7.2 with Tris base and the osmolarity to 300 mOsm with sucrose. The extracellular solution contained (in mM): 140 NaCl, 5 KCl, 2 CaCl2, 1 MgCl2, 10 HEPES, and 10 glucose; pH was adjusted to 7.3 with Tris base. The Nernst potential for Cl^− in the intrapipette solution is −82.9 mV. The bath was continuously perfused with extracellular solution (ECS) at room temperature (23±1° C.). The patch electrodes had resistances of 5 to 8 MΩ. The junction potential between the patch pipette and the bath solutions was nulled just before forming a gΩ seal. Series resistance was monitored and compensated by 70-80% throughout recordings. The data were ignored if the series resistance (15-30 MΩ) changed by >20% during the recording session.

α4β2 nAChRs = α4β2 nAChRs (Mus musculus, UniProt O70174+Q9ERK7)
From the text: For NFRET experiments, Neuro-2a cells were transfected with GaIT-eCFP+α4-mcherry+β2-eGFP subunits. GaIT-eCFP was used to label the TG, TGN (Schaub et al., 2006). Cells transfected with α4-mcherryβ2wt or α4wtβ2-eGFP nAChRs were included in every imaging session to control for pixel saturation and spectral bleedthrough. Live cells were imaged using an Eclipse C1si laser scanning confocal microscope. During image acquisition, cells were focused to a plane where the GaIT-eCFP fluorescence was best visualized. Images with emission spectra for eCFP, eGFP and mcherry were acquired in 5-nm bins between 470 and 620 nm. 439, 488 and 561 nm laser lines were used to excite eCFP, eGFP and mcherry respectively. Images were linearly unmixed using reference spectra for eCFP, eGFP and mcherry with emission maxima at 477, 508 and 608 nm. Reference spectra were acquired from Neuro-2a cells transfected with either GaIT-eCFP or α4-mcherryβ2wt or α4wtβ2-eGFP during the same imaging session. Linear unmixing was used to separate all three emission spectra from each image. Linearly unmixed images were compiled into donor spectral bleed-through stacks, acceptor spectral bleed-through stacks, and sample image stacks.
The PixFRET ImageJ plugin was used to determine the eGFP and mcherry spectral bleedthrough (BT) values and to calculate the net FRET (nF) (equation 1) and normalized FRET (NFRET) at each pixel. With the background and bleed-through corrections set, the nF for each pixel as described by equation 1 was calculated and the data were presented as 32-bit images. nF was divided by the square root of eGFP and mcherry intensities (equation 2) to obtain the normalized FRET (NFRET) value at each pixel. FRET normalization was used to control for large differences in fluorophore expression within subcellular regions and between different cells in a dish.
where, nF=net FRET, IFRET=mcherry sensitized emission with 488 nm excitation, IeGFP=eGFP emission with 488 nm excitation, BTeGFP=spectral bleedthrough of eGFP emission into mcherry emission spectra at 488 nm excitation, Imcherry=mcherry emission with 561 nm excitation and BTmcherry=spectral bleedthrough of mcherry emission into eGFP emission spectra at 561 nm excitation. IFRET, IeGFP and Imcherry were obtained from Neuro-2a cells transfected with GaIT-eCFP+α4-mcherry+β2-eGFP. BTeGFP and BTmcherry values were obtained from Neuro-2a cells transfected with α4-mcherry+β2wt and α4wt+β2-eGFP respectively.
Histograms of NFRET (x-axis) versus number of pixels (y-axis) of each imaged cell were compiled for either the whole cell sections or the TG, TGN ROIs, demarcated by intensity-based thresholding of GaIT-eCFP fluorescence. Frequency histograms obtained in this way (omitting values of zero) were merged for all cells in each experimental group and fitted to two Gaussian components such that a minimum goodness of fit (R^2) value of 0.995 was achieved. Ratios of area under the curve for the two Gaussian components with high and low mean NFRET values were used to determine changes in receptor stoichiometry between experimental groups: NFRET histograms were fitted to Gaussian components, yielding the total pixel area under either the A1 (low mean NFRET fit) or A2 (high mean NFRET fit) components. For quantitative measurements of stoichiometry, we compared the fractional area (FA) for the low NFRET component in each case as given by the following equation:
where, FA=fractional area, A1=area under the curve for low mean NFRET Gaussian component and A2=area under the curve for high mean NFRET Gaussian component.
Due to variability resulting from cell passage number, we imaged untreated control cells on the same day to compare and evaluate the effects of drug exposure on stoichiometry.

ATF6 = format: cell-based, mouse
Protocol: (§2) Mouse Neuro-2a cells were cultured using standard tissue culture techniques and maintained in 45% DMEM, 45% OptiMEM and 10% FBS. Plasmid concentrations used for transfection were as follows: 500 ng of each nAChR subunit, 75 ng of pCS2-mcherry, 250 ng of Sec24D constructs, 100 ng of pDsRed2-ER, 250 ng of GaIT-eCFP and 500 ng of ATF6-eGFP. 90,000 cells were plated in poly-D-lysine coated 35 mm MatTek glass bottom imaging dishes. The following day, plasmid DNA was mixed with cationic lipids by adding appropriate DNA concentrations to 4 μl of Expressfect transfection reagent in 200 μl DMEM final volume and incubated for 20 min at room temperature to form cationic lipid-DNA complexes. DMEM+DNA-lipid complexes were added to Neuro-2a cells in 1 ml of DMEM+10% FBS and incubated at 37° C. for 4 h. Dishes were rinsed 2× with DMEM, then filled with 3 ml of DMEM+10% FBS and incubated at 37° C. for 48 h. Nicotine, cytisine or DHβE was added at appropriate concentrations during the change of medium following 4 h incubation with Expressfect-plasmid DNA complexes.

α4-eGFPβ2-wt nAChRs [2] = molecular target: T3, α4-eGFPβ2-wt nAChRs; format: cell-based; remark: listed apart in the source
From the text: Details of the quantification method have been previously described (Srinivasan et al., 2011). Briefly, PM fluorescence was extracted as follows: Raw TIRF images were converted to background-subtracted images and the ER fluorescence was thresholded and selected. ER fluorescence was then subtracted from the original image to generate images with PM fluorescence signals. These procedures yielded a dataset of several hundred thousand pixel intensities over the 15-50 cells in each experimental group. Fluorescence intensities are simply the sum of pixel values for either the PM or the ER or the ER+PM (using whole TIRF footprint images). Mean PM fluorescence intensity was derived by dividing the total fluorescence intensity for each experimental group by the number of imaged cells and normalized to intensity of untreated cells. Ratios of fluorescence intensities for the whole TIRF footprint (ER+PM) to ER were used to determine the post-Golgi fraction of receptors. For PM integrated density measurements, rather than plotting SEMs (which would be indistinguishably small on the plots), we have used “error bars” to depict 99% confidence intervals based on a two-tailed t-test. Measurements from drug treated cells were normalized to values of untreated cells imaged on the same day. DHβE TIRF experiments were performed on a different day from nicotine and cytisine experiments.

Neuro-2a cells [3] = format: cell-based, mouse
Protocol: (§3) Neuro-2a cells were transfected with α4-eGFP (500 ng)+β2wt (500 ng)+GaIT-mcherry (250 ng) or pDSred2-ER (100 ng) and cells were incubated for 48 h with appropriate concentrations of nicotine, cytisine or DHβE.
Two color fluorescence signals were separated with a dichroic and optical filters aligned in the emission path where green and red emission was separately aligned to the two halves of an EMCCD. Post-acquisition processing of images used Metamorph to demarcate TGN bodies and to extract number, size and intensity statistics.

ER exit sites (ERES) = format: cell-based, mouse
Protocol: as §2
Neuro-2a cells were co-transfected with 500 ng each of α4-mcherry and β2-wt nAChR subunits and 250 ng of the ERES marker, Sec24D-eGFP. Each cell was focused to a plane where the maximum ERES were visualized. Sequential images of eGFP and mcherry fluorescence were obtained and linearly unmixed. For quantification, ERES regions of interest (ROIs) were demarcated using intensity-based thresholding and counted for each cell using the particle analysis feature in ImageJ version 1.44 or later. The fluorescence intensity was obtained for each ERES body within the cells and average ERES intensity was plotted. Error bars for ERES measurements are ±standard error of mean (SEM) and p values are based on a 2-tailed t test.

Neuro-2a cells [4] = format: cell-based, mouse; remark: listed apart in the source
Protocol: as §3
In ImageJ, background was subtracted, and DSred2-ER fluorescence was thresholded and demarcated for each cell.

NMDA receptor = details: in vivo; cited from earlier work
[5] = compared to untreated cells, 48 h exposure
[6] = compared with untreated cells, 48 h

T2 sequence (O70174 31-629): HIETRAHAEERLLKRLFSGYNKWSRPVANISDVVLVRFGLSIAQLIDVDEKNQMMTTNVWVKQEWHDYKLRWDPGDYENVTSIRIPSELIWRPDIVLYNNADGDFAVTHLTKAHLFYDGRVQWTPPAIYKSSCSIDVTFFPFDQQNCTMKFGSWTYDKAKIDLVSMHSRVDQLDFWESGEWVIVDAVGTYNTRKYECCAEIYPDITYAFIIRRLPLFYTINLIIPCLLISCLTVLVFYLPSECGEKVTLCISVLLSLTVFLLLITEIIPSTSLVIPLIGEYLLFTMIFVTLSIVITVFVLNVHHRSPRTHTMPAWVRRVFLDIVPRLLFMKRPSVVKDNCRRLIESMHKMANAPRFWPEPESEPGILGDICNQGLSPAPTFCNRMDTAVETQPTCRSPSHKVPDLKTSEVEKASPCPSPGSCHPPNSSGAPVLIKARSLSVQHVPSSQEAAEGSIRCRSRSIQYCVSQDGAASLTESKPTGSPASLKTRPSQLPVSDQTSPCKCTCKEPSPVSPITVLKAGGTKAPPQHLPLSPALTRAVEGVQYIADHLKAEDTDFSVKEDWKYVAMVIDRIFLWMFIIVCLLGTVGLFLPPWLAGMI
T2 sequence (Q8R493 21-495): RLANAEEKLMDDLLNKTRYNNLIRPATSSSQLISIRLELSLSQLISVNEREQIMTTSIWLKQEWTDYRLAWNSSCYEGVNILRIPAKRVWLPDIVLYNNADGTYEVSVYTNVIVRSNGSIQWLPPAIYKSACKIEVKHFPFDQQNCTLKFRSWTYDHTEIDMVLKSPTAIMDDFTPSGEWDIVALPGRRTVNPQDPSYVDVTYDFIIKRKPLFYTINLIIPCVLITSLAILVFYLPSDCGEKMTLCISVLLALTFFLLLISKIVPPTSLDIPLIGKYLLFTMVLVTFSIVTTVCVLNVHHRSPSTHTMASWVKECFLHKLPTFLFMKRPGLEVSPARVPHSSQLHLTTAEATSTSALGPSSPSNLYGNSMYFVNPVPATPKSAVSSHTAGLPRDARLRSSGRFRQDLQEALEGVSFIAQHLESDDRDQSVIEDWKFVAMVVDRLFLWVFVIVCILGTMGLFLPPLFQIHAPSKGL
T3 sequence (O70174 31-629): as the sequence (O70174 31-629) above
T3 sequence (Q9ERK7 26-501): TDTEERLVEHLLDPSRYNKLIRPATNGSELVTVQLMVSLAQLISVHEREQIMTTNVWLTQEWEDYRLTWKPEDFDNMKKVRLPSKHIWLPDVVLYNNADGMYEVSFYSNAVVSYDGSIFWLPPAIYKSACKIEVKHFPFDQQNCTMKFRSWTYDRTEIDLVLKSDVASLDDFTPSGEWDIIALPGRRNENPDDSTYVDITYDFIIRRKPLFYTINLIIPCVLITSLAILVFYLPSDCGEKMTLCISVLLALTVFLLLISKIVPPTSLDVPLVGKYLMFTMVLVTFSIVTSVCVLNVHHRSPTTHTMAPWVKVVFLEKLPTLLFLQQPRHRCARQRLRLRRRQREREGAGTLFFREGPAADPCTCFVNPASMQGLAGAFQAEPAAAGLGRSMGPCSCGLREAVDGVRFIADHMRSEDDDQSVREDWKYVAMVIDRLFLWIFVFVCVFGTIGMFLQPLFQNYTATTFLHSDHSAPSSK
α4β2 nAChRs, sequence (O70174 31-629): as the sequence (O70174 31-629) above
α4β2 nAChRs, sequence (Q9ERK7 26-501): as the sequence (Q9ERK7 26-501) above
T1 sequence (O70174 31-629, stated change not applied): as the sequence (O70174 31-629) above
T1 sequence (Q8R493 21-495 R348C): as the sequence (Q8R493 21-495) above, with R328C counted along it

CC(=O)OCC[N+](C)(C)C [ACh]
ACh evoked inward currents (α4-GFPβ4-R348C nAChRs; 300 μM ACh puffs (0.1 s, 20 psi), α4-GFPβ4-R348C): 120±33 pA
neurons in which ACh evoked inward currents (α4-GFPβ4-R348C nAChRs; 300 μM ACh, α4-GFPβ4-R348C (11/12)): 92%
current density (ACh currents divided by membrane capacitance) (α4-GFPβ4-R348C nAChRs; 300 μM ACh, α4-GFPβ4-R348C as printed): 16.3±2.1 pA/pF
ACh evoked inward currents (α4-GFPβ4-WT nAChRs; 300 μM ACh puffs (0.1 s, 20 psi), α4-GFPβ4-WT): 310±72 pA
neurons in which ACh evoked inward currents (α4-GFPβ4-WT nAChRs; 300 μM ACh, α4-GFPβ4-WT (8/8)): 100%
current density (ACh currents divided by membrane capacitance) (α4-GFPβ4-WT nAChRs; 300 μM ACh, α4-GFPβ4-WT as printed): 6.3±1.4 pA/pF

O=c1cccc2n1C[C@@H]1CNC[C@H]2C1 [Cytisine, cytisine]
evoked currents as % of maximum currents induced by 500 μM nicotine (α4-eGFPβ2-wt nAChRs [1]): < 0.1%
fraction of the total receptor population activated (α4-eGFPβ2-wt nAChRs [1]): < 0.1%
TG+TGN FA (fractional area of low NFRET component) (α4β2 nAChRs): 0.42
whole cell FA (fractional area of low NFRET component) (α4β2 nAChRs): 0.30
reduction in the ratio of nuclear to whole cell ATF6-eGFP fluorescence (ATF6): ~25%
increase in PM-localized nAChRs (α4-eGFPβ2-wt nAChRs [2]): 3 fold and ~3.5 fold
increase in the footprint/ER ratio (α4-eGFPβ2-wt nAChRs [2]): ~1.5 fold and ~2 fold
Number of TGN bodies (Neuro-2a cells [3]): no effect
effect on the average intensity of TGN bodies (in words) (Neuro-2a cells [3]): significantly reduced
effect on the number of TGN bodies (in words) (Neuro-2a cells [3]): failed to significantly affect
increase in ERES fluorescence / formation of ERES (ER exit sites (ERES)): ~2 fold
effect on peripheral ER area (in words) (Neuro-2a cells [4]): reduced
reduction in the average ER area (Neuro-2a cells [4]): ~1.4 fold

CO[C@H]1CC=C2CCN3CCC4=C(CC(=O)OC4)[C@]23C1 [DHβE, dihydro-β-erythroidine]
nAChR activation (in words) (α4-eGFPβ2-wt nAChRs [1]): activates no receptors
TG+TGN FA (fractional area of low NFRET component) (α4β2 nAChRs; 10 μM DHβE, untreated cells 0.53): 0.37
whole cell FA (fractional area of low NFRET component) (α4β2 nAChRs; 10 μM DHβE, untreated cells 0.54): 0.45
effect on nAChR stoichiometry (α4β2 nAChRs; concentrations ranging from 0.1 to 1 μM): did not affect
reduction in the ratio of nuclear to whole cell ATF6-eGFP fluorescence (ATF6; 10 or 100 μM, 48 h (both concentrations)): ~23%
effect on the footprint/ER ratio (in words) (α4-eGFPβ2-wt nAChRs [2]; [5]): no marked effects
increase in the footprint/ER ratio (α4-eGFPβ2-wt nAChRs [2]; [5]): ~1.5 fold
effect on PM-localized nAChRs (in words) (α4-eGFPβ2-wt nAChRs [2]; compared to untreated controls, 48 h exposure): small, but significant increase; also recorded: no marked effects
effect on the average intensity of TGN bodies (in words) (Neuro-2a cells [3]; [6]): significantly reduced
effect on the number of TGN bodies (in words) (Neuro-2a cells [3]; [6]): failed to significantly affect
increase in ERES fluorescence / formation of ERES (ER exit sites (ERES); compared to untreated control cells, co-expressed nAChRs): ~2 fold
effect on peripheral ER area (in words) (Neuro-2a cells [4]; compared to untreated controls, 48 h): did not significantly affect

CNC1(c2ccccc2Cl)CCCCC1=O (centres unmarked) [ketamine]
time within which antidepressant effects become established (NMDA receptor): 1 to 2 h
